Source: PubChem BioAssay AID248 (DTP/NCI, 2004)
Values joined by “and” are separate entries in the source; they are usually repeats but may differ in a detail not shown here. Equal entries are not always repeated. Toxic doses and inconclusive results are not listed.

System: L1210 leukemia ip in BDF1 mice, survival T/C
Assay: NCI In Vivo Anticancer Drug Screen. Data for tumor model L1210 Leukemia (intraperitoneal) in B6D2F1 (BDF1) mice
Details: endpoint: mean survival time, higher = longer survival
Outline: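 Each compound was tested against a transplantable tumor grown in mice. The endpoint was survival, with treated animals benchmarked against vehicle controls as a simple ratio.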

[1] = dose: 25.0 mg/kg/injection, schedule: Q01DX009 (ip), vehicle: Klucel (hydroxypropylcellulose) (HPC)
[2] = dose: 50.0 mg/kg/injection, schedule: Q01DX009 (ip), vehicle: Klucel (hydroxypropylcellulose) (HPC)
[3] = dose: 100.0 mg/kg/injection, schedule: Q01DX009 (ip), vehicle: Klucel (hydroxypropylcellulose) (HPC)
[4] = dose: 100.0 mg/kg/injection, schedule: Q04DX003 (ip), vehicle: Klucel (hydroxypropylcellulose) (HPC)
[5] = dose: 100.0 mg/kg/injection, schedule: Q04DX003 (ip), vehicle: saline
[6] = dose: 200.0 mg/kg/injection, schedule: Q04DX003 (ip), vehicle: saline
[7] = dose: 400.0 mg/kg/injection, schedule: Q04DX003 (ip), vehicle: saline
[8] = dose: 100.0 mg/kg/injection, schedule: Q04DX003 (ip), vehicle: saline with Tween-80
[9] = dose: 200.0 mg/kg/injection, schedule: Q04DX003 (ip), vehicle: saline with Tween-80
[10] = dose: 200.0 mg/kg/injection, schedule: Q01DX009 (ip), vehicle: Klucel (hydroxypropylcellulose) (HPC)
[11] = dose: 200.0 mg/kg/injection, schedule: Q04DX003 (ip), vehicle: Klucel (hydroxypropylcellulose) (HPC)
[12] = dose: 400.0 mg/kg/injection, schedule: Q04DX003 (ip), vehicle: Klucel (hydroxypropylcellulose) (HPC)
[13] = dose: 100.0 mg/kg/injection, schedule: Q01DX001 (ip), vehicle: carboxymethylcellulose (CMC)
[14] = dose: 200.0 mg/kg/injection, schedule: Q01DX001 (ip), vehicle: carboxymethylcellulose (CMC)
[15] = dose: 100.0 mg/kg/injection, schedule: Q04DX002 (ip), vehicle: Klucel (hydroxypropylcellulose) (HPC)
[16] = dose: 200.0 mg/kg/injection, schedule: Q04DX002 (ip), vehicle: Klucel (hydroxypropylcellulose) (HPC)
[17] = dose: 400.0 mg/kg/injection, schedule: Q04DX002 (ip), vehicle: Klucel (hydroxypropylcellulose) (HPC)

O=C(CCCN1CC=C(n2c(=O)[nH]c3ccccc32)CC1)c1ccc(F)cc1
T/C (dose: 6.25 mg/kg/injection, schedule: Q01DX009 (ip), vehicle: Klucel (hydroxypropylcellulose) (HPC)): 100 % of control | T/C (dose: 6.25 mg/kg/injection, schedule: Q04DX003 (ip), vehicle: Klucel (hydroxypropylcellulose) (HPC)): 103 % of control | T/C (dose: 12.5 mg/kg/injection, schedule: Q01DX009 (ip), vehicle: Klucel (hydroxypropylcellulose) (HPC)): 104 % of control | T/C (dose: 12.5 mg/kg/injection, schedule: Q04DX003 (ip), vehicle: Klucel (hydroxypropylcellulose) (HPC)): 103 % of control | T/C [1]: 98 % of control | T/C (dose: 25.0 mg/kg/injection, schedule: Q04DX003 (ip), vehicle: Klucel (hydroxypropylcellulose) (HPC)): 103 % of control | T/C [2]: 102 % of control | T/C (dose: 50.0 mg/kg/injection, schedule: Q04DX003 (ip), vehicle: Klucel (hydroxypropylcellulose) (HPC)): 106 % of control | T/C [3]: 94 % of control | T/C [4]: 101 % of control and 111 % of control

C=C(Cl)CSC(=N)N
T/C (dose: 10.0 mg/kg/injection, schedule: Q01DX009 (ip), vehicle: saline): 109 % of control | T/C (dose: 12.0 mg/kg/injection, schedule: Q01DX009 (ip), vehicle: Klucel (hydroxypropylcellulose) (HPC)): 88 % of control | T/C (dose: 20.0 mg/kg/injection, schedule: Q01DX009 (ip), vehicle: saline): 101 % of control | T/C [1]: 103 % of control | T/C [5]: 108 % of control | T/C [6]: 106 % of control | T/C [7]: 104 % of control

NC(=O)CSc1cc(Cl)c(Cl)cc1Cl
T/C (dose: 50.0 mg/kg/injection, schedule: Q04DX003 (ip), vehicle: saline with Tween-80): 103 % of control | T/C [8]: 106 % of control | T/C [9]: 90 % of control

O/N=C(\c1ccccc1)C(c1ccccc1)C(Cl)(Cl)Cl (stereo not given)
T/C [8]: 86 % of control | T/C [9]: 88 % of control | T/C (dose: 400.0 mg/kg/injection, schedule: Q04DX003 (ip), vehicle: saline with Tween-80): 88 % of control

C/C=C/Sc1ccccc1
T/C (dose: 75.0 mg/kg/injection, schedule: Q01DX001 (ip), vehicle: carboxymethylcellulose (CMC)): 95 % of control | T/C (dose: 150.0 mg/kg/injection, schedule: Q01DX001 (ip), vehicle: carboxymethylcellulose (CMC)): 101 % of control | T/C (dose: 300.0 mg/kg/injection, schedule: Q01DX001 (ip), vehicle: carboxymethylcellulose (CMC)): 98 % of control

CCOC(=O)C(C)Cl (stereo not given)
T/C [3]: 97 % of control | T/C [4]: 103 % of control | T/C [10]: 96 % of control | T/C [11]: 103 % of control | T/C [12]: 103 % of control

O=C(Nc1cccc(Cl)c1)c1cc(N=Nc2ccc([N+](=O)[O-])cc2Cl)ccc1O
T/C [4]: 103 % of control | T/C [11]: 104 % of control

CN(C)c1ccc2cc(S(=O)(=O)O)cc(O)c2c1
T/C (dose: 100.0 mg/kg/injection, schedule: Q01DX009 (ip), vehicle: saline with Tween-80): 102 % of control | T/C [4]: 105 % of control | T/C (dose: 200.0 mg/kg/injection, schedule: Q01DX009 (ip), vehicle: saline with Tween-80): 96 % of control | T/C [11]: 95 % of control | T/C (dose: 400.0 mg/kg/injection, schedule: Q01DX009 (ip), vehicle: saline with Tween-80): 94 % of control | T/C [12]: 93 % of control

CCCCCCCC(=O)/C=C/c1ccc(C)cc1
T/C [5]: 105 % of control | T/C [6]: 103 % of control | T/C [7]: 92 % of control

CCCCCC(C[N+](C)(C)C)C(=O)/C=C/c1ccc(Cl)cc1 (stereo not given)
T/C [4]: 96 % of control | T/C [11]: 106 % of control

Sc1cccc2c(S)cccc12
T/C (dose: 50.0 mg/kg/injection, schedule: Q01DX001 (ip), vehicle: carboxymethylcellulose (CMC)): 100 % of control | T/C [13]: 97 % of control | T/C [14]: 103 % of control | T/C (dose: 400.0 mg/kg/injection, schedule: Q01DX001 (ip), vehicle: carboxymethylcellulose (CMC)): 100 % of control

FC(F)(F)C(F)(F)C1=NS1(F)C(F)(C(F)(F)F)C(F)(F)F (stereo not given)
T/C (dose: 100.0 mg/kg/injection, schedule: Q01DX001 (ip), vehicle: acetone): 100 % of control | T/C (dose: 200.0 mg/kg/injection, schedule: Q01DX001 (ip), vehicle: acetone): 97 % of control | T/C (dose: 400.0 mg/kg/injection, schedule: Q01DX001 (ip), vehicle: acetone): 97 % of control

CCCCCCCCCCCCCCCN(CCCl)CCCl
T/C [13]: 93 % of control | T/C [14]: 96 % of control

COC1OC2COCOC2C(OC(C)=O)C1OC(C)=O (stereo not given)
T/C (dose: 50.0 mg/kg/injection, schedule: Q04DX002 (ip), vehicle: Klucel (hydroxypropylcellulose) (HPC)): 104 % of control | T/C [15]: 103 % of control and 100 % of control | T/C [16]: 95 % of control and 104 % of control and 92 % of control | T/C [17]: 103 % of control and 113 % of control

CCCNc1ncc(C(=O)O)c(=O)[nH]1
T/C [8]: 93 % of control

CC(=O)c1cccc(NC(=O)Nc2cccc(F)c2)c1
T/C [3]: 103 % of control | T/C [10]: 97 % of control | T/C (dose: 400.0 mg/kg/injection, schedule: Q01DX009 (ip), vehicle: Klucel (hydroxypropylcellulose) (HPC)): 110 % of control

O=C(OCC1OC(n2cnc3c(=S)nc[nH]c32)C(OC(=O)c2ccccc2)C1OC(=O)c1ccccc1)c1ccccc1 (stereo not given)
T/C (dose: 25.0 mg/kg/injection, schedule: Q01DX009 (ip), vehicle: saline): 118 % of control | T/C (dose: 25.0 mg/kg/injection, schedule: Q01DX Z (ip), vehicle: saline): 109 % of control | T/C (dose: 39.0 mg/kg/injection, schedule: Q01DX Z (ip), vehicle: carboxymethylcellulose (CMC)): 124 % of control | T/C (dose: 50.0 mg/kg/injection, schedule: Q01DX Z (ip), vehicle: saline): 117 % of control | T/C (dose: 88.0 mg/kg/injection, schedule: Q01DX Z (ip), vehicle: carboxymethylcellulose (CMC)): 118 % of control | T/C (dose: 100.0 mg/kg/injection, schedule: Q01DX009 (ip), vehicle: saline): 168 % of control | T/C (dose: 110.0 mg/kg/injection, schedule: Q01DX009 (ip), vehicle: saline): 123 % of control | T/C (dose: 220.0 mg/kg/injection, schedule: Q01DX009 (ip), vehicle: saline): 150 % of control | T/C (dose: 222.0 mg/kg/injection, schedule: Q01DX Z (ip), vehicle: saline): 95 % of control | T/C (dose: 300.0 mg/kg/injection, schedule: Q01DX Z (ip), vehicle: carboxymethylcellulose (CMC)): 150 % of control and 168 % of control | T/C (dose: 300.0 mg/kg/injection, schedule: Q01DX Z (ip), vehicle: methylcellulose (MC)): 112 % of control | T/C (dose: 450.0 mg/kg/injection, schedule: Q01DX Z (ip), vehicle: carboxymethylcellulose (CMC)): 171 % of control | T/C (dose: 450.0 mg/kg/injection, schedule: Q01DX Z (ip), vehicle: methylcellulose (MC)): 97 % of control | T/C (dose: 600.0 mg/kg/injection, schedule: Q01DX001 (ip), vehicle: saline): 120 % of control | T/C (dose: 675.0 mg/kg/injection, schedule: Q01DX Z (ip), vehicle: carboxymethylcellulose (CMC)): 100 % of control and 109 % of control | T/C (dose: 1007.0 mg/kg/injection, schedule: Q01DX Z (ip), vehicle: carboxymethylcellulose (CMC)): 93 % of control | T/C (dose: 1510.0 mg/kg/injection, schedule: Q01DX Z (ip), vehicle: carboxymethylcellulose (CMC)): 90 % of control

CCN=C(c1ccc(NC(=O)c2ccc(C(=O)Nc3ccc(C(=NCC)N(CC)C(=O)NCCCCl)cc3)cc2)cc1)N(CC)C(=O)NCCCCl
T/C (dose: 0.5 mg/kg/injection, schedule: Q01DX015 (ip), vehicle: methylcellulose (MC)): 100 % of control | T/C (dose: 1.0 mg/kg/injection, schedule: Q01DX015 (ip), vehicle: methylcellulose (MC)): 102 % of control | T/C (dose: 2.0 mg/kg/injection, schedule: Q01DX015 (ip), vehicle: methylcellulose (MC)): 111 % of control

O=[N+]([O-])c1ccc2c(c1)-c1ccccc1C2O (stereo not given)
T/C (dose: 100.0 mg/kg/injection, schedule: Q01DX005 (ip), vehicle: Klucel (hydroxypropylcellulose) (HPC)): 105 % of control | T/C [15]: 107 % of control | T/C (dose: 200.0 mg/kg/injection, schedule: Q01DX005 (ip), vehicle: Klucel (hydroxypropylcellulose) (HPC)): 94 % of control | T/C [16]: 93 % of control | T/C (dose: 400.0 mg/kg/injection, schedule: Q01DX005 (ip), vehicle: Klucel (hydroxypropylcellulose) (HPC)): 91 % of control | T/C [17]: 104 % of control

CCO/C=N\c1c(C#N)c(CC#N)nn1-c1ccccc1
T/C [2]: 100 % of control | T/C [3]: 91 % of control | T/C [10]: 100 % of control
